Results: article PMC10303384, “The Effect of Terbinafine and Its Ionic Salts on Certain Fungal Plant Pathogens” (Molecules, 2023)
Values after ≈ are worked out from the molar mass of the structure shown. Values joined by “and” are separate entries in the source; they are usually repeats but may differ in a detail not shown here. Equal entries are not always repeated. Where two headings read alike, the source gives them in different places.

Tests used:
Valsa malicola (V. mali) = assay: In vitro fungicidal activity, mycelial (hyphae) growth inhibition on PDA; type: cell-based
[1] = system: Botrytis cinerea (B. cinerea); assay: as above; type: cell-based
[2] = system: Pyricularia oryzae (P. oryzae); assay: microbe, parasite or virus in culture; type: cell-based
[3] = system: Phomopsis capsici (P. capsica); assay: In vitro fungicidal activity, mycelial (hyphae) growth inhibition on PDA; type: cell-based; conditions: mean ± SD of three replicates
[4] = system: Alternaria solani (A. solani); assay: as above; type: cell-based
[5] = system: Rhizoctonia solani (R. solani); assay: microbe, parasite or virus in culture; type: cell-based
[6] = system: Fusarium graminearum (F. graminearum); assay: microbe, parasite or virus in culture; type: cell-based
[7] = system: Pythium aphanidermatum (P. aphanidermatum); assay: In vitro fungicidal activity, mycelial (hyphae) growth inhibition on PDA; type: cell-based; conditions: mean ± SD of three replicates
[8] = Solubility classification in representative solvents (Vogel protocol); type: physicochemical; conditions: 25 °C; for solubility: thermodynamic from solid
Method: This investigation details how to determine the solubility of terbinafine and its salts, guided by the experimental protocol in Vogel’s Textbook of Practical Organic Chemistry. Based on the Snyder polarity index values of the representative solvents, each solvent was tested for its ability to dissolve the target analytes. The solubility data was classified into three categories based on the observed extent of dissolution. […] The experimental procedures were performed at 25 °C and under ambient pressure.

[9] = Solubility of saturated solutions by HPLC at 25 °C; type: physicochemical
Text: The filtrate was then passed through a 0.22 μm nylon membrane filter and subjected to HPLC analysis. Based on Wang’s report about the chromatographic parameters, modifications to the mobile phase ratio were made. The replicability of the results was ensured by performing each measurement in triplicate.

[10] = system: B. cinerea on cherry tomatoes; assay: In vivo antifungal bioassay on cherry tomatoes; parameters: species or system Botrytis cinerea; conditions: 20 mg/L; for Diameter of infection (cm) 4 days: 4 days after treatment; for Diameter of infection (cm) 7 days: 7 days after treatment
[11] = Critical micelle concentration by electrical conductivity; conditions: 25 °C
Method: The critical micelle concentrations (CMCs) of the TISs were measured using electrical conductivity at 25 °C, as shown in Figure S16.
The critical micelle concentrations (CMCs) of all the TISs were determined using an electrical conductivity meter (Leica Desktop Conductivity Meter DDSJ-308F, Shanghai Oustor Industrial Co., Ltd. Shanghai, China).

[12] = Surface tension of saturated aqueous solutions, Du Noüy ring method; conditions: 25 °C
Method: This method involved adjusting the stage positioning of the solvent container such that a platinum ring could be immersed below the liquid interface or pulled through the meniscus. […] The maximum force was recorded as the surface tension of the solvent. To ensure accuracy, the platinum ring was thoroughly cleaned between each measurement through rinsing with double-distilled water and wiping it dry. The surface tension determination was performed in quadruplicate.

[13] = 50 mg/L, mean ± SD of three replicates
[14] = V. mali, read-out: EC50 (μmol/L)
[15] = test amount 0.1 g, Snyder polarity index 4.3

SMILES: CN(C/C=C/C#CC(C)(C)C)Cc1cccc2ccccc12.O=C(O)c1ccco1 [TIS 5, (E)-N,6,6-trimethyl-N-(naphthalen-1-ylmethyl)hept-2-en-4-yn-1-aminium furan-2-carboxylate]
- Inhibition Rate at 50 mg/L (%) V. m (Valsa malicola (V. mali); [13]): 100 ± 0%
- EC50 (mg/L) (Valsa malicola (V. mali); V. mali): 1.49 mg/L
- improvement of antifungal activity compared to terbinafine (Valsa malicola (V. mali); V. mali, from EC50): 14%
- EC50 (Valsa malicola (V. mali); [14]): 3.69 µmol/L
- Inhibition Rate at 50 mg/L (%) B. c [1, 13]: 100 ± 0%
- EC50 (mg/L) ([1]; B. cinerea): 0.13 mg/L
- EC50 ([1]; B. cinerea, read-out: EC50 (μmol/L)): 0.33 µmol/L
- Inhibition Rate at 50 mg/L (%) P. o [2, 13]: 96.68 ± 0.42%
- EC50 (mg/L) ([2]; P. oryzae): 0.49 mg/L
- EC50 ([2]; P. oryzae, read-out: EC50): 1220 nM
- Inhibition Rate at 50 mg/L (%) P. c [3]: 55.88 ± 1.89%
- Inhibition Rate at 50 mg/L (%) A. s [4, 13]: 98.67 ± 0.61%
- EC50 (mg/L) ([4]; A. solani): 0.08 mg/L
- improvement of antifungal activity compared to terbinafine ([4]; A. solani, from EC50): 20%
- EC50 ([4]; A. solani, read-out: EC50 (μmol/L)): 0.2 µmol/L
- EC50 (mg/L) [5]: 2.43 mg/L
- Inhibition Rate at 50 mg/L (%) R. s ([5]; 50 mg/L): 82.02 ± 0.91%
- EC50 ([5]; read-out: EC50): 6020 nM
- Inhibition Rate at 50 mg/L (%) F. g [6, 13]: 100 ± 0%
- EC50 (mg/L) ([6]; F. graminearum): 0.11 mg/L
- EC50 ([6]; F. graminearum, read-out: EC50): 270 nM
- Inhibition Rate at 50 mg/L (%) P. a [7]: 71.96 ± 2.68%
- Solubility in n-Hexane ([8]; test amount 0.1 g, Snyder polarity index 0.0): − (“−” means insoluble in a 3 mL solvent, poor solubility)
- Solubility in Toluene ([8]; test amount 0.1 g, Snyder polarity index 2.3): + (“+” means soluble in a 1 mL solvent, good solubility)
- Solubility in Chloroform ([8]; test amount 0.1 g, Snyder polarity index 4.1): + (“+” means soluble in a 1 mL solvent, good solubility)
- Solubility in Ethyl acetate [8, 15]: + (“+” means soluble in a 1 mL solvent, good solubility)
- Solubility in Isopropanol [8, 15]: + (“+” means soluble in a 1 mL solvent, good solubility)
- Solubility in Acetone ([8]; test amount 0.1 g, Snyder polarity index 5.1): + (“+” means soluble in a 1 mL solvent, good solubility)
- Solubility in Acetonitrile ([8]; test amount 0.1 g, Snyder polarity index 6.2): + (“+” means soluble in a 1 mL solvent, good solubility)
- Solubility in DMSO ([8]; test amount 0.1 g, Snyder polarity index 6.5): + (“+” means soluble in a 1 mL solvent, good solubility)
- Solubility in Methanol ([8]; test amount 0.1 g, Snyder polarity index 6.6): + (“+” means soluble in a 1 mL solvent, good solubility)
- Solubility in Water ([8]; test amount 0.1 g, Snyder polarity index 9.0): − (“−” means insoluble in a 3 mL solvent, poor solubility)
- Solubility, n-Hexane ([9]; Table S1): 1.02 µM
- water solubility ([9]; water): 5880 µM
- Diameter of infection (cm) 4 days [10]: 0.61 cm
- Diameter of infection (cm) 7 days [10]: 0.74 cm
- critical micelle concentration (CMC) [11]: 0.66 mmol/L
- surface tension of the saturated aqueous solution [12]: 51.26 mN·m^−1

SMILES: CN(C/C=C/C#CC(C)(C)C)Cc1cccc2ccccc12 [Terbinafine]
- inhibition at 50 µg/mL (Valsa malicola (V. mali); Cytospora schulzeri, 50 mg/L, mean ± SD of three replicates, read-out: Inhibition Rate at 50 mg/L (%) V. m): 100%
- EC50 (Valsa malicola (V. mali); V. mali, read-out: EC50 (mg/L)): 1.25 mg/L
- EC50 (Valsa malicola (V. mali); [14]): 4.28 µmol/L
- inhibition at 50 µg/mL ([1]; Botrytis cinerea, 50 mg/L, mean ± SD of three replicates, read-out: Inhibition Rate at 50 mg/L (%) B. c): 100%
- EC50 ([1]; Botrytis cinerea, B. cinerea, read-out: EC50 (mg/L)): 0.1 mg/L
- EC50 ([1]; Botrytis cinerea, B. cinerea, read-out: EC50 (μmol/L)): 0.34 µmol/L
- EC50 ([2]; Pyricularia oryzae, P. oryzae): 0.28 µg/mL and 950 nM
- inhibition at 50 µg/mL ([2]; Pyricularia oryzae, read-out: Inhibition Rate at 50 mg/L (%) P. o, 50 mg/L, mean ± SD of three replicates): 99.64 ± 0.36%
- inhibition at 50 µg/mL ([3]; Diaporthe capsici, 50 mg/L, read-out: Inhibition Rate at 50 mg/L (%) P. c): 48.75 ± 0.45%
- inhibition at 50 µg/mL ([4]; Alternaria solani, 50 mg/L, mean ± SD of three replicates, read-out: Inhibition Rate at 50 mg/L (%) A. s): 100%
- EC50 ([4]; Alternaria solani, A. solani, read-out: EC50 (mg/L)): 0.07 mg/L
- EC50 ([4]; Alternaria solani, A. solani, read-out: EC50 (μmol/L)): 0.25 µmol/L
- EC50 ([5]; Rhizoctonia solani): 1.73 µg/mL and 5.94 µM
- inhibition at 50 µg/mL ([5]; Rhizoctonia solani, 50 mg/L, read-out: Inhibition Rate at 50 mg/L (%) R. s): 84.21 ± 0.53%
- EC50 ([6]; Fusarium graminearum, F. graminearum): 0.07 µg/mL and 250 nM
- inhibition at 50 µg/mL ([6]; Fusarium graminearum, read-out: Inhibition Rate at 50 mg/L (%) F. g): 100%
- inhibition at 50 µg/mL ([7]; Pythium aphanidermatum, 50 mg/L, read-out: Inhibition Rate at 50 mg/L (%) P. a): 68.2 ± 1.87%
- solubility ([8]; DMSO, organic solvent or mixture, test amount 0.1 g, Snyder polarity index 6.5, read-out: Solubility in DMSO): > 100 mg/mL
- solubility ([8]; acetone, organic solvent or mixture, test amount 0.1 g, Snyder polarity index 5.1, read-out: Solubility in Acetone): > 100 mg/mL
- solubility ([8]; acetonitrile, organic solvent or mixture, test amount 0.1 g, Snyder polarity index 6.2, read-out: Solubility in Acetonitrile): > 100 mg/mL
- solubility ([8]; chloroform, organic solvent or mixture, test amount 0.1 g, Snyder polarity index 4.1, read-out: Solubility in Chloroform): > 100 mg/mL
- solubility ([8]; ethyl acetate, organic solvent or mixture, test amount 0.1 g, Snyder polarity index 4.3, read-out: Solubility in Ethyl acetate): > 100 mg/mL
- solubility ([8]; isopropanol, organic solvent or mixture, test amount 0.1 g, read-out: Solubility in Isopropanol): > 100 mg/mL
- solubility ([8]; methanol, organic solvent or mixture, test amount 0.1 g, Snyder polarity index 6.6, read-out: Solubility in Methanol): > 100 mg/mL
- solubility ([8]; n-hexane, organic solvent or mixture, test amount 0.1 g, Snyder polarity index 0.0, read-out: Solubility in n-Hexane): > 100 mg/mL
- solubility ([8]; toluene, organic solvent or mixture, test amount 0.1 g, Snyder polarity index 2.3, read-out: Solubility in Toluene): > 100 mg/mL
- solubility ([8]; various polar solvents, organic solvent or mixture, read-out: solubility in various polar solvents): 100 mg/mL (≈ 343 mM)
- solubility ([8]; water, test amount 0.1 g, Snyder polarity index 9.0, read-out: Solubility in Water): < 33.3 mg/mL
- solubility at 15 min ([9]; water, thermodynamic from solid, read-out: water solubility): 5.22 µM (≈ 1.52 µg/mL)
- Diameter of infection (cm) 4 days [10]: 0.89 cm
- Diameter of infection (cm) 7 days [10]: 1.07 cm
- surface tension of the saturated aqueous solution [12]: 59.92 mN·m^−1
